Data set [1] has as its system isolated heart. The data set can be described thus: Experiment 2-1 Activity on isolated heart. More on the design: species or system Japanese white rabbit. Particulars: for activation at 3 µg/heart / inhibition at 3 µg/heart, 3 µg/heart / inhibition at 3 µg/heart: Oryctolagus cuniculus, 3 μg/heart; for activation at 3 µg/heart: read-out: Increase of coronary perfusion; for inhibition at 3 µg/heart, 3 µg/heart: read-out: Inhibitory rate of systole; for inhibition at 3 µg/heart: read-out: Reducing rate of heart pulse. The protocol:
Japanese white rabbit (weighing 2.2-2.5 kg) was anesthetized by introvenous injection of nembutal (20 mg/kg) and then sacrificed by bleeding from common carotid artery. […] After stabilizing the heart preparation for 90 minutes, the test compound was administered. There were measured the perfusion volume with a drop-counting meter (ET-600G type, manufactured by Nippon Koden K.K.) and the heart pulse and the contractility via a force-displacement transducer (FD pick up, SB-IT type, manufactured by Nippon Koden K.K.) (for measuring heart pulse, an instant pulse meter (AT-601G type, minufactured by Nippon Koden K.K.) being further used).

Another data set concerns isolated aorta. Kind of data set: Experiment 3 Relaxing activity on the isolated aorta (30 mM KCl contracted). The conditions noted are these: for EC50: Oryctolagus cuniculus, read-out: EC50 (concentration for 50% relaxation); for relaxing / vasodilating activity on isolated aorta (in words): Table 8, comparison with nifedipine and nicardipine hydrochloride, etc. where stated. More on the design: species or system Japanese white rabbit.

Data set [2] has as its system Spontaneously hypertensive male rats. Kind of data set: Experiment 1-2 Hypotensive activity (oral, 8 hours). The conditions noted are these: for hypotensive activity (in words): Table 5, comparison with nifedipine and nicardipine hydrochloride where stated. It counts as in vivo, rat. Here is the method:
Spontaneously hypertensive male rats (13-15 week age, one group: 3 rats) were used. […] The rats were fixed in a Howlman cage without fasting, and the femoral arterial pressure was measured by a direct method without anesthesia with a cannula which was previously inserted into the femoral artery of the animal, via a pressure transducer (MPU-0.5, manufactured by Nippon Koden K.K.). The test compounds were orally administered in the form of a suspension in 0.5% methyl cellulose solution in a dose of 10 mg/kg (in some compounds, 3 mg/kg). In the control group, only 0.5% methyl cellulose solution was administered likewise. The blood pressure was measured for 5 hours after the administration of test compounds.
The hypotensive activity was measured in the same manner as described in Experiment 1-1 except that the rats were used in 3-5 rats per each group, and the test compounds were administered in a dose of 1 mg/kg (some compounds, 3 mg/kg), and the blood pressure was measured for 8 hours after the administration of test compounds.

Data set [3] has as its system isolated heart. The data set can be described thus: Experiment 2-2 Activity onto the isolated heart (with duration). More on the design: species or system Japanese white rabbit. The conditions noted are these: for Coronary perfusion Duration: time until perfusion volume returned to initial level; for activation at 3 µg/heart / inhibition at 3 µg/heart / activation at 1 µg/heart / inhibition at 1 µg/heart: Oryctolagus cuniculus; for activation at 3 µg/heart / activation at 1 µg/heart: read-out: Coronary perfusion Increase. Here is the method: Japanese white rabbit (weighing 2.2-2.5 kg) was anesthetized by introvenous injection of nembutal (20 mg/kg) and then sacrificed by bleeding from common carotid artery. […] There were measured the perfusion volume with a drop-counting meter (ET-600G type, manufactured by Nippon Koden K.K.) and the heart pulse and the contractility via a force-displacement transducer (FD pick up, SB-IT type, manufactured by Nippon Koden K.K.) (for measuring heart pulse, an instant pulse meter (AT-601G type, minufactured by Nippon Koden K.K.) being further used).
The test compounds were dissolved in ethanol, and the solution was diluted in 100-fold with purified water, and the diluted solution was administered in an amount of 0.1 ml/heart (i.e. 3 μg/heart).
The activity was measured in the same manner as described in Experiment 2-1 except that in some test compounds, the dose was in 1 μg/heart. Besides, the duration of the activity was evaluated by counting the time until the coronary perfusion volume became to the initial level before the administration of the test compound.

Data set [4] has as its system Spontaneously hypertensive male rats. Kind of data set: Experiment 1-1 Hypotensive activity (oral, conscious spontaneously hypertensive rats). It counts as in vivo, rat. The conditions noted are these: 10 mg/kg oral; for Maximum hypotension: mean blood pressure.
Data set [5] in a line: Experiment 4-2 Acute toxicity, rats. The conditions noted are these: rat, in vivo, po, 4 week age, 7 days. From the text:
Wistar male and female rats (4 week age) and ddy male and female mice (4 week age) were used. The compounds of Example Nos. 82 and 83 were each orally administered to […].

Setting [6] is: 3 μg/heart, read-out: Inhibitory rate of systole.
Setting [7] is: 3 μg/heart, read-out: Reducing rate of heart pulse.
Setting [8] is: 30 mM KCl contraction, maximum relaxation by papaverine = 100%.
The mark [9] stands for this setting: 1 μg/heart, read-out: Inhibitory rate of systole.
[10] abbreviates: 1 μg/heart, read-out: Reducing rate of heart pulse.

“Also recorded” adds a separate entry of the source. Where two headings read alike, the source gives them in different places. Where only a bound is given, the exact number is not on record here.

Experimental for isolated aorta: Japanese white rabbit (weighing 2.3-2.7 kg) was sacrificed by bleeding from common carotid artery. Immediately, the aorta was isolated and cut into a sprial strip. The strip preparation was vertically suspended under a resting tension of 2.0 g in a tissue bath containing 20 ml of modified Ringer solution while bubbling with a mixture of 95% O2 +5% CO2 by connecting one end of the strip to a lever of the above-mentioned FD pick up. The aortic strip was contracted with 30 mM KCl. When the contraction became constant, the test compound was accumulatively administered, and the relaxing effect was measured. After the final treatment, 10^-4T M papaverine was administered and the maximum relaxation obtained thereby was taken as 100%. In comparison with the maximum relaxation obtained by papaverine, the rate of relaxation by the test compounds was evaluated, and the concentration of the test compounds for obtaining 50% relaxation (EC50) was calculated.
The test compound was dissolved in ethanol, and the solution was diluted in 100 to 1×10^4 folds with a nutrient solution, and the diluted solution was administered.

For `COC(=O)C1=C(C)NC(C)=C(C(=O)OC)C1c1ccccc1[N+](=O)[O-]` [Compound A, dimethyl 1,4-dihydro-2,6-dimethyl-4-(2-nitophenyl)3,5-pyridinedicarboxylate, reference compound], in the data set with isolated heart [1], the activation at 3 µg/heart was determined as 40%; the inhibition at 3 µg/heart, 3 µg/heart was 35%; the inhibition at 3 µg/heart came to 10%. Also, the EC50 in the data set with isolated aorta came to 41 nM. For the same compound, in data set [2] (1 mg/kg oral), the Maximum hypotension is 55 mmHg, the Recovering time was 3.0 to 4.0 h, the “Time for recovering 1/2 of max. hypotension” value (shortened to “Time … of max. hypotension”) came out at 2.0 h and the “Time until reaching to max. hypotension” value came to 30 min. Also, in the data set on isolated heart [3] (3 μg/heart), the “Coronary perfusion Duration” value is under 10 min and the activation at 3 µg/heart amounted to 40%. Further, in the data set on isolated heart [3] (setting [6]), the inhibition at 3 µg/heart came to 35%. Also, in the data set with isolated heart [3] (setting [7]), the inhibition at 3 µg/heart stood at 10%. Further, in data set [4], the Recovering time was found to be 4.0 h, the “Time … of max. hypotension” value worked out at 1.5 h, the “Time until reaching to max. hypotension” value was found to be 15 min and the Maximum hypotension worked out at 49 mmHg.
Turning to `COC(=O)C1=C(C)NC(C)=C(C(=O)OCCN(C)Cc2ccccc2)C1c1cccc([N+](=O)[O-])c1.Cl` (stereo not drawn) [Compound B, methyl, N-benzyl-N-methylaminoethyl 1,4-dihydro-2,6-dimethyl-4-(3-nitrophenyl)-3,5-pyridinedicarboxylate hydrochloride, reference compound], in the data set with isolated heart [1], the activation at 3 µg/heart stood at 15%; the inhibition at 3 µg/heart, 3 µg/heart was 10%; the inhibition at 3 µg/heart turned out to be 5%. The EC50 in the data set on isolated aorta (setting [8]) was determined as 19 nM. Further, in data set [2] (3 mg/kg oral), the Maximum hypotension is 27 mmHg, the Recovering time was in the range of 3.0 to 4.0 h, the “Time … of max. hypotension” value stood at 2.0 h and the “Time until reaching to max. hypotension” value came to 30 min. In addition, in the data set on isolated heart [3] (3 μg/heart), the “Coronary perfusion Duration” value was under 10 min and the activation at 3 µg/heart was determined as 15%. Besides, in the data set on isolated heart [3] (setting [6]), the inhibition at 3 µg/heart came out at 10%. Besides, in the data set with isolated heart [3] (setting [7]), the inhibition at 3 µg/heart was found to be 5%. Besides, in data set [4], the Recovering time was over 5.0 h, the “Time … of max. hypotension” value is over 5.0 h, the “Time until reaching to max. hypotension” value is 15 min and the Maximum hypotension is listed as 57 mmHg.
Take `C#CCNC(=O)C1=C(C)NC(C)=C(C(=O)OCCCCCCCCC)C1c1ccccc1[N+](=O)[O-]` (stereo not drawn) [Example 79, n-nonyl 2,6-dimethyl-3-propargylaminocarbonyl-4-(o-nitrophenyl)-1,4-dihydropyridine-5-carboxylate]: in data set [2] (1 mg/kg oral), the Maximum hypotension came to 45 mmHg, the Recovering time was 5.0 h, the “Time … of max. hypotension” value amounted to 3.0 h and the “Time until reaching to max. hypotension” value stood at 60 min. Besides, the “hypotensive activity (in words)” value in data set [2] is reported as “the same or more potent hypotensive activity with longer duration”. In the data set on isolated heart [3] (1 μg/heart), the “Coronary perfusion Duration” value was determined as 60 min and the activation at 1 µg/heart is 50%. Moreover, in the data set on isolated heart [3] (setting [9]), the inhibition at 1 µg/heart turned out to be 40%. The inhibition at 1 µg/heart in the data set on isolated heart [3] (setting [10]) is 30%.
On to `CCCCCCCCCOC(=O)C1=C(C)NC(C)=C(C(=O)NC2CC2)C1c1ccccc1[N+](=O)[O-]` (stereo not drawn) [Example 83, n-nonyl 2,6-dimethyl-3-cyclopropylaminocarbonyl-4-(o-nitrophenyl)-1,4-dihydropyridine-5-carboxylate], for which, in the data set with isolated aorta, the EC50 amounted to 290 nM and the “relaxing / vasodilating activity on isolated aorta (in words)” value is reported as “somewhat weak vasodilating activity”. The same compound showed an LD50 at 168 h in data set [5] (female rats) of at most 10 mg/kg. The LD50 at 168 h in data set [5] (male rats) lay within 100 to 500 mg/kg. For the same compound, in data set [2] (1 mg/kg oral), the Maximum hypotension is given as 61 mmHg, the Recovering time was over 8.0 h, the “Time … of max. hypotension” value is over 8.0 h and the “Time until reaching to max. hypotension” value was found to be 180 min. Moreover, in data set [2], the “hypotensive activity (in words)” value is reported as “the same or more potent hypotensive activity with longer duration; also recorded: potent hypotensive activity”. In the data set on isolated heart [3] (3 μg/heart), the “Coronary perfusion Duration” value was over 120 min. Besides, in the data set with isolated heart [3], the activation at 3 µg/heart amounted to 42%. In the data set on isolated heart [3] (read-out: Inhibitory rate of systole), the inhibition at 3 µg/heart worked out at 50%. For the same compound, the inhibition at 3 µg/heart with isolated heart [3] (read-out: Reducing rate of heart pulse) worked out at 20%.
`C#CCNC(=O)C1=C(C)NC(C)=C(C(=O)OCCCCCCCC)C1c1ccccc1[N+](=O)[O-]` (stereo not drawn) [Example 78, n-octyl 2,6-dimethyl-3-propargylaminocarbonyl-4-(o-nitrophenyl)-1,4-dihydropyridine-5-carboxylate]: in data set [2] (1 mg/kg oral), the Maximum hypotension was determined as 33 mmHg, the Recovering time turned out to be 5.0 h, the “Time … of max. hypotension” value was determined as 3.0 h and the “Time until reaching to max. hypotension” value was 60 min. Besides, the “hypotensive activity (in words)” value in data set [2] is reported as “the same or more potent hypotensive activity with longer duration”. In the data set with isolated heart [3] (1 μg/heart), the “Coronary perfusion Duration” value came out at 60 min and the activation at 1 µg/heart was 55%. The inhibition at 1 µg/heart with isolated heart [3] (setting [9]) turned out to be 35%. For the same compound, in the data set with isolated heart [3] (setting [10]), the inhibition at 1 µg/heart came to 10%.
Take `CC1=C(C(=O)NC(C)C)C(c2ccccc2[N+](=O)[O-])C(C(=O)OCC(C)C)=C(C)N1` (stereo not drawn) [Example 46]: in the data set with isolated heart [1], the activation at 3 µg/heart is 14%; the inhibition at 3 µg/heart, 3 µg/heart worked out at 9%; the inhibition at 3 µg/heart was 3%. Besides, the EC50 in the data set on isolated aorta (setting [8]) came out at 70 nM. In addition, the “relaxing / vasodilating activity on isolated aorta (in words)” value in the data set on isolated aorta is recorded as “the same or more potent activity”. Also, in data set [4], the Recovering time amounted to 1.5 h, the “Time … of max. hypotension” value amounted to 0.5 h, the “Time until reaching to max. hypotension” value is 15 min and the Maximum hypotension was 10 mmHg.
As to `CCCCCCCCCCOC(=O)C1=C(C)NC(C)=C(C(=O)NC(C)C)C1c1ccccc1[N+](=O)[O-]` (stereo not drawn) [Example 52], in the data set with isolated heart [1], the activation at 3 µg/heart came to 20%; the inhibition at 3 µg/heart, 3 µg/heart is 45%; the inhibition at 3 µg/heart is 15%. In the data set on isolated heart [1] (Table 6), the “inhibitions on the heart pulse and contactility (in words)” value is “moderate inhibitions on the heart pulse and contactility”. The EC50 in the data set on isolated aorta (setting [8]) turned out to be 420 nM. In data set [4], the Recovering time is 1.0 h, the “Time … of max. hypotension” value was 0.5 h, the “Time until reaching to max. hypotension” value is 15 min and the Maximum hypotension was found to be 12 mmHg.

For the origin of these results see US4874773A, “3-Aminocarbonyl-1,4-dihydropyridine-5-carboxylic acid compounds, and pharmaceutical composition containing the same” (priority 1985, dated 1989).
